From patent US20090203658A1, “NEUROACTIVE STEROID COMPOSITIONS AND METHODS OF USE THEREFOR” (Duke University, priority 2007, published 2009)
Marks after values point to notes of the source that are not given here.

Legend:
[1] = DHEA administration in humans (50 mg); cited from earlier work
healthy male smokers = test: Pilot study of one-time DHEA or PG after overnight abstinence from cigarettes: craving measures; format: in vivo, human; settings: one-time 400 mg; vs. placebo
Protocol: Elaborating, a pilot study is provided herein, which involves administering one-time DHEA (400 mg), PG (400 mg) or placebo to healthy male smokers following overnight abstinence from cigarettes. […] Thus, neuroactive steroids can be candidate therapeutic molecules for smoking cessation.

brain = settings: in vivo; cited from earlier work
[2] = single dose of PG 175 mg; over the course of 5-8 hours; cited from earlier work
[3] = tested on: subjects with schizophrenia or schizoaffective disorder; test: Randomized placebo-controlled double-blind trial of adjunctive PG: negative and cognitive symptoms (SANS, BACS, MATRICS); format: in vivo, human
From the text: Of 21 subjects randomized, 18 completed at least four weeks of treatment (n=9 per group). […] Increases in serum PG levels were positively correlated with cognitive improvement in the PG group, predicting both BACS (r=0.79, n=9, p=0.02; see FIG. 3A) and MATRICS (r=0.70, n=9, p=0.05; see FIG. 3B) composite scores at eight weeks. The mean BACS z-score increase for the PG group was 0.60 (vs. 0.22 for the placebo group). BACS and MATRICS assessments were correlated (r=0.74, p<0.0001).

[4] = tested on: subjects with schizophrenia or schizoaffective disorder
[5] = Serum drug levels after chronic lithium or valproate in chow; settings: chow 1.2 then 2.4 g Li2CO3/kg, four weeks; measured by atomic absorption
From the text: Lithium and Valproate Administration. […] Animals were fed with control rodent chow or chow containing a low dose of lithium (1.2 g Li2CO3/kg) or valproate (10 g/kg) for one week to allow the animals to slowly acclimate to the drug, and were then fed with chow containing a full dose of lithium (2.4 g Li2CO3/kg) or valproate (20 g/kg) for three weeks. On the last day of the treatment, animals were sacrificed, and trunk blood was collected to measure lithium and valproate levels in the serum.

rat frontal cortex = test: Neuroactive steroid levels in frontal cortex after chronic lithium or valproate (GC/MS preceded by HPLC); format: in vivo, Male Wistar Kyoto rats; settings: chronic administration four weeks, n=9
Protocol: Lithium and Valproate Administration.
NS analyses in rat and mouse frontal cortex were performed as described in Marx et al., 2006a; Marx et al., 2006b; and Marx et al., 2006c. Rodent brain tissue was homogenized in 5 volumes of distilled water containing about 2200 cpm (4400 dpm/injection) of tritiated NS (Perkin Elmer, Waltham, Mass.) to detect the HPLC fraction containing the NS of interest. Deuterated ALLO (D4-ALLO, 400 pg) and deuterated PG (D4-PG, 400 pg) were used as internal standards. Supernatants were extracted three times with three volumes of ethyl acetate and dried under nitrogen prior to HPLC purification. […] The limit of NS detection with this method was 2 pg for ALLO and 10 pg for PG. Mean intra-assay coefficients of variation were 3.9% for ALLO and 3.0% for PG.
Statistical Analysis. For rat experiments utilizing chronic lithium and valproate administration, data were analyzed by ANOVA with post-hoc Dunnett tests. Data from Bcl-2 knockout mouse experiments were analyzed by unpaired t-tests.
To that end, NS levels (ALLO and PG) were determined in frontal cortex by negative ion chemical ionization gas chromatography/mass spectrometry in male Wistar Kyoto rats treated chronically with lithium, valproate, or vehicle. NS were also investigated in heterozygous Bcl-2 knockout mice.

[6] = change from baseline (Hillside AE Form), n = 9
[7] = change from baseline (Hillside AE Form), n = 9, mild in all subjects

SMILES: C[C@]12CC[C@H](O)CC1=CC[C@@H]1[C@@H]2CC[C@]2(C)C(=O)CC[C@@H]12 [DHEA, dehydroepiandrosterone]
- increase of ALLO [1]: three-fold
- craving measures following overnight smoking cessation (healthy male smokers): attenuates craving measures

SMILES: CNCCC(Oc1ccc(C(F)(F)F)cc1)c1ccccc1 (stereo not shown) [Fluoxetine]
- effect on brain ALLO levels and PG levels (brain): elevates

SMILES: CC(=O)[C@H]1CC[C@H]2[C@@H]3CC=C4C[C@@H](O)CC[C@]4(C)[C@H]3CC[C@]12C [PG, pregnenolone]
- change of serum PG levels [2]: approximately doubled
- craving measures following overnight smoking cessation (healthy male smokers): attenuates craving measures
- mean change in SANS scores (improvement) ([3]; PG 50 to 250 mg BID for 8 weeks added to second generation antipsychotics, n=9, placebo 2.33, p=0.05): 10.38
- mean BACS z-score increase ([3]; PG group, placebo group 0.22): 0.60
- increase in serum ALLO levels after PG administration (eight weeks of PG vs. baseline, schizophrenia subjects): over 5 fold
- PGS levels after PG administration (subjects with schizophrenia, baseline vs. 10 weeks): significantly increased
- AIMS, Barnes Akathisia Scale, Simpson-Angus Scale, blood pressure, pulse, or weight ([4]; PG administration): did not result in a significant change
- tolerability ([4]; PG group, n=9): well-tolerated
- glucose level, average post-treatment ([4]; average baseline 117.9 mg/dl): 119.0 mg/dL
- cholesterol, average post-treatment ([4]; average baseline 185.8 mg/dl): 164.6 mg/dL
- QTc intervals on EKG ([4]; baseline (visit 1) vs. week 10 (visit 6)): did not negatively impact
- Akathisia [4, 6]: 0 N (%)
- All Other Side Effects [4, 6]: 0 N (%)
- Blurred Vision [4, 6]: 0 N (%)
- Diarrhea [4, 6]: 0 N (%)
- Drowsiness [4, 6]: 0 N (%)
- Excitation/Agitation [4, 6]: 0 N (%)
- Headache [4, 6]: 0 N (%)
- Impaired Sexual Performance [4, 6]: 0 N (%)
- Insomnia [4, 6]: 0 N (%)
- Joint Pain/Stiffness [4, 6]: 0 N (%)
- Malaise [4, 6]: 0 N (%)
- Nasal Congestion [4, 6]: 0 N (%)
- Peripheral Edema [4, 6]: 0 N (%)
- Rigidity [4, 6]: 0 N (%)
- Sweating [4, 6]: 0 N (%)
- Tremor [4, 6]: 0 N (%)
- Hypertension ([4]; change from baseline (Hillside AE Form), n = 9, mild (<145/90)): 1 (11%)^b N (%)
- Cold Extremities [4, 7]: 1 (11%)^a N (%)
- Decreased Interest in Sex [4, 7]: 1 (11%)^a N (%)
- Dry mouth [4, 7]: 1 (11%)^a N (%)
- Muscle Pain/Stiffness [4, 7]: 1 (11%)^a N (%)
- Restlessness [4, 7]: 2 (22%)^a N (%)
- Disorientation (to date, address, mayor, or MD name) ([4]; change from baseline pre-randomization (Hillside AE Form), n = 9, mild in all subjects): 2 (22%)^a N (%)

SMILES: [Li] [lithium]
- serum lithium level [5]: 0.74 ±0.31 mEq/l
- mean ALLO levels in rat frontal cortex (rat frontal cortex; 0.75 SEM, vehicle 0.71 ng/g, post-hoc Dunnett p<0.05): 2.42 ng/g
- mean PG levels in rat frontal cortex (rat frontal cortex; ±2.95 SEM, vehicle 3.37 ng/g, post-hoc Dunnett p=0.09): 8.19 ng/g
